{"source": "patent US20050037446A1", "about": "“Agents that recognize src when phosphorylated at serine 17” (priority 2001, published 2005)", "key": {"Ras": {"tested_on": "Ras", "assay": "Ras activation affinity assay in SYF and Src++ cells", "format": "cell-based, mouse", "procedure": "Endogenous GTP-loaded Ras was determined using a Ras activation affinity assay as follows. Hek293 cells were grown, stimulated, and lysed as described above. Activated Ras was assayed as previously described (Schmitt and Stork, Mol. Cell. Biol. 21:3671-83, 2001). Briefly, equivalent amounts of lysates from stimulated cells were incubated with GST-Rafl-RBD (Ras-binding domain) as specified by the manufacturer (Upstate Biotechnology, Lake Placid, N.Y.). Proteins were eluted with 2×Laemmli buffer and applied to a 12% SDS polyacrylamide gel. Proteins were transferred to a PVDF membrane, blocked at room temperature for 1 hour in 5% milk and probed with either Ras or Flag antibody overnight at 4° C., followed by an HRP-conjugated anti-mouse secondary. Proteins were detected using enhanced chemiluminescence.\nTo determine which SFK was mediating these effects, cell lines derived from mouse embryo fibroblasts that lack SFKs, were used as described in Example 3. SYF and Srcd cells were transfected with Flag-Rap 1, and WT Src or pcDNA3 vector alone as described in Example 3. Cells were stimulated with isoproterenol or left untreated, and then cell lysates were examined for active GTP-loaded Rap1 (Flag-Rap1-GTP) as described in Examples 1 and 6. Isoproterenol's ability to activate Rap1 was absent in SYF cells, but was retained in Src^++ cells. […]"}, "Rap1": {"tested_on": "Rap1", "assay": "Rap1 activation assay in Src++ and SYF fibroblasts", "format": "cell-based, mouse", "procedure": "The Rap1 activation affinity assay was performed as follows. A GST fusion protein of the Rap1-binding domain of RalGDS (GST-RalGDS, Dr. Bos, Utrecht University, The Netherlands) was expressed in E. coli following induction by isopropyl-1thio-β-D-galactopyranoside. Active Rap1 was isolated as previously described (Franke et al., EMBO J. 16:252-9, 1997). Briefly, equivalent amounts of supernatants (500 μg) were incubated with GST-RalGDS-Rap1 binding domain coupled to glutathione beads. Following a one hour incubation at 4° C., beads were pelleted and rinsed threes times with ice-cold lysis buffer. The protein was eluted from the beads using 2× Laemmli buffer and applied to a 12% SDS-polyacrylamide gel. […] Proteins were detected using enhanced chemiluminescence. […]\nFollowing selection, SYF cells were left untreated or stimulated with Forskolin in the presence or absence of H89 or PP2. Cells were lysed in ice-cold lysis buffer and the lysates analyzed by Western blot for phosphorylation of myc-ERK2 as described above. […]\nSYF cells were co-transfected with Flag-Rap1 and either vector, Flag-Src, or Flag-SrcS 17A and stimulated with Forskolin as described in the above examples. Cell lysates were examined for Rap1 activation using the method described in EXAMPLE 1 or analyzed by Western blot to identify Flag-containing proteins. […]"}}, "data": [{"smiles": "CC(C)NCC(O)c1ccc(O)c(O)c1", "note": "(stereo not shown) [isoproterenol]", "values": [{"measurement": "Ras activation by agonist", "setting": "Ras; SYF cells", "value": "absent"}, {"measurement": "Ras activation by agonist", "setting": "Ras; Src++ cells", "value": "retained"}, {"measurement": "Rap1 activation by agonist", "setting": "Rap1; SYF cells", "value": "absent"}, {"measurement": "Rap1 activation by agonist", "setting": "Rap1; Src++ cells", "value": "retained"}]}]}
